Measured values published in US10105357B2, “Indication of antibiotic drugs for preparation of cancer inhibition pharmaceutical composition” (LAUNX BIOMEDICAL CO., LTD., priority 2014, dated 2018).
Counter-ions that a name gives are not always drawn. Like-named read-outs stand apart in the source and are kept apart here. Positions of bridges follow the written chain, without caps; N, C: chain ends. Non-standard residues stand in square brackets, D forms with d. Residues, ends and D or L forms follow the SMILES beside them. *: point of attachment. Ileψ(thiazoline)Cys = CC[C@H](C)[C@H](N)C1=N[C@H](C(=O)*)CS1; dOrn = NCCC[C@@H](N)C(=O)O

Legend:
Assay type in all cases: cell-based, human
cancer cell lines = test: Cell viability analysis (WST-1) on cancer cell lines; details: drug 10 μM, 72 hours, WST-1; Table 3
[1] = system: HI650 (Lung Adenocarcinoma); test: Cell viability analysis, lung cancer HI650; details: Homo sapiens
[2] = system: A549 (Lung Adenocarcinoma); test: Cell viability analysis, lung cancer A549; details: Homo sapiens
[3] = system: AGS (Gastric Adenocarcinoma); test: Cell viability analysis, gastric cancer AGS; details: Homo sapiens
[4] = system: MKN-45 (Gastric Adenocarcinoma); test: Cell viability analysis, gastric cancer MKN-45; details: Homo sapiens
[5] = system: HepG2 (Hepatocellular Carcinoma); test: Cell viability analysis, hepatic cancer HepG2; details: Homo sapiens
[6] = system: LoVo (Colorectal Adenocarcinoma); test: Cell viability analysis, colon cancer LoVo; details: Homo sapiens, LoVo
[7] = system: A375 (Amelanotic Melanoma); test: Cell viability analysis, skin cancer A375; details: Homo sapiens
[8] = system: HeLa (Cervix Adenocarcinoma); test: Cell viability analysis, cervical cancer HeLa; details: Homo sapiens, HeLa
[9] = system: PC3 (p53−) (Prostate Adenocarcinoma); test: Cell viability analysis, prostate cancer PC3; details: Homo sapiens
[10] = system: TSGH-8301 (Urinary Bladder Carcinoma); test: Cell viability analysis, bladder cancer TSGH-8301; details: Homo sapiens
[11] = system: MCF7 (Mammary Gland, Adenocarcinoma); test: Cell viability analysis, breast cancer MCF7; details: Homo sapiens
[12] = system: HL-60 (Acute Promyelocytic Leukemia); test: Cell viability analysis, leukemia HL-60; details: Homo sapiens
[13] = NCI-H1650, 72 h, read-out: cell viability (survival rate), H1650, drug 10 μM, 72 hours, WST-1, OD450 nm
[14] = A549, 72 h, read-out: cell viability (survival rate), A549, drug 10 μM, 72 hours, WST-1, OD450 nm
[15] = 72 h, read-out: cell viability (survival rate), AGS, drug 10 μM, 72 hours, WST-1, OD450 nm
[16] = MKN-45, 72 h, read-out: cell viability (survival rate), MKN-45, drug 10 μM, 72 hours, WST-1, OD450 nm
[17] = HepG2, 72 h, read-out: cell viability (survival rate), HepG2, drug 10 μM, 72 hours, WST-1, OD450 nm
[18] = 72 h, read-out: cell viability (survival rate), LoVo, drug 10 μM, 72 hours, WST-1, OD450 nm
[19] = A-375, 72 h, read-out: cell viability (survival rate), A375, drug 10 μM, 72 hours, WST-1, OD450 nm
[20] = 72 h, read-out: cell viability (survival rate), HeLa, drug 10 μM, 72 hours, WST-1, OD450 nm
[21] = 72 h, read-out: cell viability (survival rate), PC3, drug 10 μM, 72 hours, WST-1, OD450 nm
[22] = 72 h, read-out: cell viability (survival rate), TSGH, drug 10 μM, 72 hours, WST-1, OD450 nm
[23] = MCF7, 72 h, read-out: cell viability (survival rate), MCF7, drug 10 μM, 72 hours, WST-1, OD450 nm
[24] = HL-60, 72 h, read-out: cell viability (survival rate), HL-60, drug 10 μM, 72 hours, WST-1, OD450 nm
[25] = NCI-H1650, drug 10 μM, 72 hours, WST-1, OD450 nm, read-out: cell viability (survival rate), H1650
[26] = A549, drug 10 μM, 72 hours, WST-1, OD450 nm, read-out: cell viability (survival rate), A549
[27] = drug 10 μM, 72 hours, WST-1, OD450 nm, read-out: cell viability (survival rate), AGS
[28] = MKN-45, drug 10 μM, 72 hours, WST-1, OD450 nm, read-out: cell viability (survival rate), MKN-45
[29] = HepG2, drug 10 μM, 72 hours, WST-1, OD450 nm, read-out: cell viability (survival rate), HepG2
[30] = drug 10 μM, 72 hours, WST-1, OD450 nm, read-out: cell viability (survival rate), LoVo
[31] = A-375, drug 10 μM, 72 hours, WST-1, OD450 nm, read-out: cell viability (survival rate), A375
[32] = drug 10 μM, 72 hours, WST-1, OD450 nm, read-out: cell viability (survival rate), HeLa
[33] = drug 10 μM, 72 hours, WST-1, OD450 nm, read-out: cell viability (survival rate), PC3
[34] = drug 10 μM, 72 hours, WST-1, OD450 nm, read-out: cell viability (survival rate), TSGH
[35] = MCF7, drug 10 μM, 72 hours, WST-1, OD450 nm, read-out: cell viability (survival rate), MCF7
[36] = HL-60, drug 10 μM, 72 hours, WST-1, OD450 nm, read-out: cell viability (survival rate), HL-60

| SMILES | inhibition effect on different cancer cell lines (cancer cell lines) | viability at 10 µM [1, 13] | viability at 10 µM [2, 14] | viability at 10 µM [3, 15] | viability at 10 µM [4, 16] | viability at 10 µM [5, 17] | viability at 10 µM [6, 18] | viability at 10 µM [7, 19] | viability at 10 µM [8, 20] | viability at 10 µM [9, 21] | viability at 10 µM [10, 22] | viability at 10 µM [11, 23] | viability at 10 µM [12, 24] | further results |
| --- | --- | --- | --- | --- | --- | --- | --- | --- | --- | --- | --- | --- | --- | --- |
| C[C@@H]1C/C=C/C=C/C=C/C=C/[C@H](O[C@@H]2O[C@H](C)[C@@H](O)[C@H](N)[C@@H]2O)C[C@@H]2O[C@](O)(C[C@@H](O)C[C@H]3O[C@@H]3/C=C/C(=O)O1)C[C@H](O)[C@H]2C(=O)O [Natamycin (Pimaricin), Natamycin] | significant inhibition effect | 57% | 62.6% | 40.9% | 67.1% | 95.3% | 84.8% | 82.1% | 93.5% | 70% | 84.9% | 83.2% | 107% |  |
| O=C(N/N=C/c1ccc([N+](=O)[O-])o1)c1ccc(O)cc1 [Nifuroxazide] | significant inhibition effect | 57.6% | 33.2% | 36.7% | 51% | 73% | 58.3% | 51.6% | 66.6% | 92% | 56.2% | 80.1% | 38.8% |  |
| O=C(Nc1ccccc1)c1ccccc1O [Salicylanilide] | significant inhibition effect |  |  |  |  |  |  |  |  |  |  |  |  | viability at 10 µM [1, 25]: 80.5%; viability at 10 µM [2, 26]: 62.1%; viability at 10 µM [3, 27]: 77.8%; viability at 10 µM [4, 28]: 83.5%; viability at 10 µM [5, 29]: 97.2%; viability at 10 µM [6, 30]: 86.2%; viability at 10 µM [7, 31]: 92.8%; viability at 10 µM [8, 32]: 118%; viability at 10 µM [9, 33]: 89.7%; viability at 10 µM [10, 34]: 108%; viability at 10 µM [11, 35]: 106%; viability at 10 µM [12, 36]: 71.1% |
| Nc1ccc(S(=O)(=O)Nc2nccs2)cc1 [Sulfathiazole] | significant inhibition effect | 38.8% | 47.2% | 54.6% | 30.8% | 65.7% | 78.1% | 30.8% | 47.7% | 94.9% | 54.5% | 60.1% | 96.7% |  |
| Nc1ccn(C[C@@H](CO)OCP(=O)(O)O)c(=O)n1 [Cidofovir (Vistide), Cidofovir] | significant inhibition effect |  |  |  |  |  | 82.3% |  |  |  |  |  |  | viability at 10 µM ([1]; NCI-H1650, 72 h, drug 10 μM, 72 hours, WST-1, OD450 nm, read-out: cell viability (survival rate), H1650): 53.3%; viability at 10 µM ([2]; A549, 72 h, drug 10 μM, 72 hours, WST-1, OD450 nm, read-out: cell viability (survival rate), A549): 58.3%; viability at 10 µM ([3]; 72 h, drug 10 μM, 72 hours, WST-1, OD450 nm, read-out: cell viability (survival rate), AGS): 39.6%; viability at 10 µM ([4]; MKN-45, 72 h, drug 10 μM, 72 hours, WST-1, OD450 nm, read-out: cell viability (survival rate), MKN-45): 56.9%; viability at 10 µM ([5]; HepG2, 72 h, drug 10 μM, 72 hours, WST-1, OD450 nm, read-out: cell viability (survival rate), HepG2): 97.2%; viability at 10 µM ([7]; A-375, 72 h, drug 10 μM, 72 hours, WST-1, OD450 nm, read-out: cell viability (survival rate), A375): 82.6%; viability at 10 µM ([8]; 72 h, drug 10 μM, 72 hours, WST-1, OD450 nm, read-out: cell viability (survival rate), HeLa): 82.1%; viability at 10 µM ([9]; 72 h, drug 10 μM, 72 hours, WST-1, OD450 nm, read-out: cell viability (survival rate), PC3): 63.9%; viability at 10 µM ([10]; 72 h, drug 10 μM, 72 hours, WST-1, OD450 nm, read-out: cell viability (survival rate), TSGH): 49.8%; viability at 10 µM ([11]; MCF7, 72 h, drug 10 μM, 72 hours, WST-1, OD450 nm, read-out: cell viability (survival rate), MCF7): 78.3%; viability at 10 µM ([12]; HL-60, 72 h, drug 10 μM, 72 hours, WST-1, OD450 nm, read-out: cell viability (survival rate), HL-60): 112% |
| Cc1cccc(C(C)c2cnc[nH]2)c1C (stereo not shown) [Medetomidine HCl] | significant inhibition effect | 49.8% | 73.7% | 108% | 37.4% | 91.9% | 79.4% | 59.7% | 78.4% | 65.6% | 104% | 72.3% | 84.5% |  |
| O=C1OC(CN2CCOCC2)CN1/N=C/c1ccc([N+](=O)[O-])o1 (stereo not shown) [Furaltadone HCl] | significant inhibition effect | 83.1% | 67.9% | 68.2% | 72.6% | 83.2% | 62.2% | 66% | 64% | 99.2% | 81.3% | 103% | 64.6% |  |
| COc1cccc(N(C)C(=S)Oc2ccc3c(c2)CCCC3)n1 [Liranaftate] | significant inhibition effect |  |  |  |  |  |  |  |  |  |  |  |  | viability at 10 µM [1, 25]: 50.7%; viability at 10 µM [2, 26]: 67.1%; viability at 10 µM [3, 27]: 73.6%; viability at 10 µM [4, 28]: 76.7%; viability at 10 µM [5, 29]: 79.8%; viability at 10 µM [6, 30]: 86.6%; viability at 10 µM [7, 31]: 84.5%; viability at 10 µM [8, 32]: 89%; viability at 10 µM [9, 33]: 92.7%; viability at 10 µM [10, 34]: 108%; viability at 10 µM [11, 35]: 84.8%; viability at 10 µM [12, 36]: 92% |
| CC[C@H](C)[C@H](N)C1=N[C@H](C(=O)N[C@@H](CC(C)C)C(=O)N[C@H](CCC(=O)O)C(=O)N[C@H](C(=O)N[C@H]2CCCCNC(=O)[C@H](CC(N)=O)NC(=O)[C@@H](CC(=O)O)NC(=O)[C@H](Cc3cnc[nH]3)NC(=O)[C@@H](Cc3ccccc3)NC(=O)[C@H]([C@@H](C)CC)NC(=O)[C@@H](CCCN)NC2=O)[C@@H](C)CC)CS1 [Bacitracin] ({Ileψ(thiazoline)Cys}-L[dE]IK[dOrn]I[dF]H[dD]N; lactam 4-C) | significant inhibition effect | 65.4% | 51.4% | 61.4% | 46.9% | 86.4% | 69.9% | 54.7% | 68.4% | 70% | 68.3% | 41.4% | 85.9% |  |
| CC(=O)S[C@@H]1CC2=CC(=O)CC[C@]2(C)[C@H]2CC[C@@]3(C)[C@@H](CC[C@@]34CCC(=O)O4)[C@H]12 [Spironolactone] | significant inhibition effect | 79.8% | 67.5% | 96.6% | 117% | 90.5% | 67.2% | 61% | 118% | 88.5% | 90.1% | 87.7% | 57.2% |  |
